From patent US9168243B2, “Pharmaceutical compositions comprising 8-substituted dibenzylbutyrolactone lignans” (priority 2010, dated 2015)
“Also recorded” adds a separate entry of the source.

How the values were obtained:
Assay type in all cases: cell-based
phospho-GSK-3β(ser9) = assay: Western blot of GSK-3β / phospho-GSK-3β(ser9); settings: LNCaP +/- 1 nM androgen; 100 μM NTG, 0-8 hours
Procedure: Whole cell lysates were prepared by lysing floating and attached cells in Laemmli sample buffer and boiling the samples for 10 minutes. Proteins were separated by SDS-PAGE and transferred on PVDF membrane (Millipore). Western blotting was performed using antibodies against Akt, phospho-Akt (Ser473), GSK-3β, phospho-GSK-3β (Ser9) and phospho-EGF receptor Tyr(1068) (Cell Signalling Technology), Actin (clone AC-40; Sigma-Aldrich), PI3K p85α (clone 4/PI3-Kinase; BD Pharmingen), EGF receptor, Insulin receptor β and IGF-I receptor β (Santa Cruz Biotechnology), and Phospho-tyrosine (clone 4G10; Millipore). HRP-conjugated secondary antibodies were from Southern Biotechnology Associates, Promega, and Amersham Biosciences. The results were visualized using the ECL method (Amersham Biosciences) on x-ray film. The presented Western blot results are representative of at least three independent experiments. […]
LNCaP cells (+/−1 nM androgen) were treated with 0-100 μM enterolactone (ENL), matairesinol (MAT) or NTG for 1 hour prior to preparation of total cell lysates (FIG. 4A). The relative decrease in pAkt/Akt ratio was quantified from western blot analysis with Akt (60 kDa) and phospho-Akt(ser473) (Mean±SEM; n=4; Student's t-test *p<0.05, **p<0.01). […] The western blot analysis with Akt, phospho-Akt(ser473), GSK-3β and phospho-GSK-3β(ser9) was quantified. […]

[1] = tested on: LNCaP prostate cancer cells; assay: Flow cytometric screen for sensitization to TRAIL-induced apoptosis (nuclear fragmentation by propidium iodide, mitochondrial depolarization by TMRM)
Procedure: (§1) Flow cytometric analysis of apoptosis with HTS platform was performed on cells that were plated on a 96-well plate as triplicate samples. After 24 hours in androgen-deprived conditions, the cells were pretreated with 40 μM lignans or lignan derivatives for 1 hour prior to addition of 10 ng/ml izTRAIL. Twenty hours later the plate was centrifuged with a culture plate rotor (1000 rpm, 3 minutes). For analysis of nuclear fragmentation, propidium iodide (PI) buffer (40 mM Na-citrate, 0.3% Triton X-100, 50 μg/ml PI; Sigma) was added to the wells. After 10 minutes incubation at room temperature, the plate was analyzed with LSRII flow cytometer equipped with HTS platform (PE-A channel). The fraction of sub-G0/G1 events (nuclear fragmentation) was gated as a measure of apoptotic cell death. For detection of mitochondrial depolarization, the cells were detached by trypsinization of the cells and incubated in 20 nM tetramethylrhodamine (TMRM; Invitrogen) in warm culture medium for 10 minutes before analysis. The plate was analyzed with LSRII flow cytometer equipped with HTS platform (FSC, PE-A channel). The cells with decreased TMRM incorporation were considered to have undergone mitochondrial membrane depolarization. Activated caspase-3 in cells was labeled with phycerythrin (PE)-conjugated antibody according to manufacturer's protocol (BD Pharmingen) and analyzed by FacsCalibur flow cytometer (FL-2, FSC).
LNCaP cells were cultured in the absence of 1 nM androgen and incubated with lignan compounds (40 μM) for 1 hour before izTRAIL treatment (10 ng/ml) or control for 20 hours. The samples were screened for nuclear fragmentation by propidium iodide labeling (FIG. 1A) or mitochondrial depolarization by TMRM labeling (FIG. 1B). The plates were analyzed with LSRII flow cytometer equipped with HTS platform (FSC, PE-A channels). The fraction of sub-G0/G1 events (nuclear fragmentation; PE-A channel) was gated as a measure of apoptotic cell death (FIG. 1A) and the cells with decreased TMRM incorporation (PE-A channel) were considered to have undergone mitochondrial membrane depolarization (FIG. 1B). Representative histograms and dot blots for control, TRAIL, nortrachelogenin (NTG) and NTG+TRAIL treatments are viewed.
Importantly, substitution with methyl group at position 8 further increases activity of dibenzylbutyrolactone lignans in sensitization of LNCaP prostate cancer cells to TRAIL-mediated apoptosis (FIG. 8). LNCaP cells were cultured in the absence of 1 nM androgen and incubated with indicated lignan compounds (40 μM) for 1 hour before izTRAIL treatment (10 ng/ml) or control for 20 hours. The cells were disrupted and the nuclei labeled for DNA content with propidium iodide. The samples were analyzed by flow cytometry and the fraction of sub-G0/G1 events (nuclear fragmentation) was detected as a measure of apoptotic cell death (mean±SEM; n=4). (FIG. 8A). Alternatively, LNCaP cells (+/−1 nM androgen) were incubated with 0-100 μM 8-Me-MAT for 1 hour after which total cell lysates were prepared and the samples were analyzed by Western blotting for Akt and phospho-Akt(ser473) expression.

LNCaP cells = assay: Caspase-3 activation by flow cytometry, TRAIL with or without NTG; settings: for percentage of cells with activated caspase-3 (maximum): combination of 40 μM NTG and TRAIL, 20 h
Procedure: as §1
As NTG was identified as the most efficient TRAIL-sensitizing lignan, we analyzed the ability of NTG to affect the efficacy of different TRAIL concentrations in triggering of caspase-3 activation (FIG. 2A). The TRAIL resistant LNCaP cells were cultured in androgen-supplied and androgen-deprived conditions to simulate the effects of androgen-deprivation therapy, and treated for 20 h with TRAIL alone or with the combination of 40 μM NTG and TRAIL. The percentage of cells with activated caspase-3 increased from maximum of 15% to 60% for androgen-deprived, and from 13% to 30% for androgen-supplied cells (Mean±SEM; n≧3) (FIG. 2A).

SMILES: COc1cc(CC2COC(=O)C2(O)Cc2ccc(O)c(OC)c2)ccc1O (stereo not shown) [NTG, Nortrachelogenin]
- GSK-3β phosphorylation (pGSK-3β/GSK-3β ratio) (phospho-GSK-3β(ser9)): downregulates Akt and GSK-3β phosphorylation
- capacity to sensitize LNCaP prostate cancer cells to TRAIL-induced apoptosis ([1]; androgen-deprived, 40 μM lignan 1 hour before 10 ng/ml izTRAIL, 20 hours): highest capacity of the tested lignan compounds; also recorded: most efficient of the 27 tested lignan compounds; also recorded: clearly enhances the activity
- increase of the apoptotic response compared to TRAIL alone (factor) ([1]; lignan in combination with TRAIL): 3.2
- sensitizing effect when medium change directly precedes TRAIL receptor activation (LNCaP cells; 1 hour pretreatment with 40 μM NTG, culture medium replaced before TRAIL, androgen-deprived and androgen-supplied): completely abolished
- effect of increasing the NTG dose on sensitization to TRAIL (LNCaP cells; NTG 40 μM to 100 μM, 10 ng/ml TRAIL): did not induce further sensitization
- percentage of cells with activated caspase-3 (maximum) (LNCaP cells; androgen-deprived LNCaP): 60%
- percentage of cells with activated caspase-3 (maximum) (LNCaP cells; androgen-supplied LNCaP): 30%
